Test results taken from the Deep4Chem optical property database.

Experiment: photoluminescence quantum yield (fraction); solvent given as SMILES

**Q.** For `COc1nc(Nc2ccc3c4c(cccc24)C(=O)c2ccccc2-3)nc(OC)n1`, which photoluminescence quantum yield (in CC#N) is on record?
**A.** 0.59

**Q.** And the photoluminescence quantum yield (in CC(C)=O)?
**A.** 0.66

**Q.** What about the photoluminescence quantum yield (in CC(C)O) of the same compound?
**A.** 0.38

**Q.** What about the photoluminescence quantum yield (in CCCCOCCCC) of the same compound?
**A.** 0.22

**Q.** And the photoluminescence quantum yield (in CCOC(C)=O)?
**A.** 0.58

**Q.** And the photoluminescence quantum yield (in CCOCC)?
**A.** 0.39

**Q.** And the photoluminescence quantum yield (in CO)?
**A.** 0.3

**Q.** And the photoluminescence quantum yield (in Cc1ccccc1)?
**A.** 0.56

**Q.** What about the photoluminescence quantum yield (in Clc1ccccc1) of the same compound?
**A.** 0.66

**Q.** And the photoluminescence quantum yield (in N#Cc1ccccc1)?
**A.** 0.64

**Q.** And the photoluminescence quantum yield (in O=C1CCCCC1)?
**A.** 0.67

**Q.** With `COc1ccc(-c2cn3ccc[n+]3[n-]2)cc1` as the compound, how does the photoluminescence quantum yield (in ClCCl) read?
**A.** 0.062

**Q.** For `COc1cc2c(cc1OC)C1=C3C(=O)N4C=Cc5cc(OC)c(OC)cc5C4=C3C(=O)N1C=C2`, which photoluminescence quantum yield (in CN(C)C=O) is on record?
**A.** 0.7

**Q.** And the photoluminescence quantum yield (in ClC(Cl)Cl)?
**A.** 0.85

**Q.** For `CC(C)(C)c1cc(C#Cc2ccc3c(C#Cc4cc(C(C)(C)C)cc(C(C)(C)C)c4)cc4c5cc(C#Cc6cc(C(C)(C)C)cc(C(C)(C)C)c6)ccc5c(C#Cc5cc(C(C)(C)C)cc(C(C)(C)C)c5)cc4c3c2)cc(C(C)(C)C)c1`, which photoluminescence quantum yield (in ClCCl) is on record?
**A.** 0.626

**Q.** For `COc1ccc(C2=C3C(/C=C/c4cc(OC)c(OC)c(OC)c4)=C(C=O)C(C)=[N+]3[B-](F)(F)n3c(/C=C/c4cc(OC)c(OC)c(OC)c4)c(C=O)c(C=Cc4cc(OC)c(OC)c(OC)c4)c32)cc1`, which photoluminescence quantum yield (in ClCCl) is on record?
**A.** 0.1

**Q.** Which photoluminescence quantum yield (in c1ccccc1) does the source give for `COc1ccc(-c2nc3c(ccc4ccccc43)oc2=O)cc1` here?
**A.** 0.57

**Q.** With `[O-][n+]1c(/C=C/c2ccccc2)nc(N2CCOCC2)c2c1CCCC2` as the compound, how does the photoluminescence quantum yield (in ClCCl) read?
**A.** 0.21

**Q.** Which photoluminescence quantum yield (in ClCCl) does the source give for `CCCCCCOc1cc(N(CC)CC)ccc1/C=C/C(=C(C#N)C#N)c1ccc2c(c1)c1ccccc1n2CC` here?
**A.** 0.121

**Q.** Which photoluminescence quantum yield (in Cc1ccccc1) does the source give for `CCCCC(CC)CN1C(=O)c2cc(Oc3ccc(OC)cc3)c3c4c(Oc5ccc(C(C)(C)C)cc5)cc5c6c(cc(Oc7ccc(C(C)(C)C)cc7)c(c7c(Oc8ccc(OC)cc8)cc(c2c37)C1=O)c64)C(=O)N(c1c(C(C)C)cccc1C(C)C)C5=O` (stereo unspecified) here?
**A.** 0.58

**Q.** What does the source list for `COCCOCCOc1cc(C=O)c(OCCOCCOC)cc1C=O`?
**A.** photoluminescence quantum yield (in CC(C)(C)O): 0.12; photoluminescence quantum yield (in CC(C)CO): 0.09; photoluminescence quantum yield (in CC(C)O): 0.08; photoluminescence quantum yield (in CCCCO): 0.14; photoluminescence quantum yield (in CCCO): 0.15; photoluminescence quantum yield (in CCO): 0.15; photoluminescence quantum yield (in CN(C)C=O): 0.05; photoluminescence quantum yield (in CNC=O): 0.03; photoluminescence quantum yield (in CO): 0.22; photoluminescence quantum yield (in NC=O): 0.26; photoluminescence quantum yield (in O): 0.55

**Q.** With `Nc1ccc2c(c1)Cc1ccccc1-2` as the compound, how does the photoluminescence quantum yield (in C1CCCCC1) read?
**A.** 0.74

**Q.** What about the photoluminescence quantum yield (in C1COCCO1) of the same compound?
**A.** 0.73

**Q.** And the photoluminescence quantum yield (in CC#N)?
**A.** 0.52

**Q.** What about the photoluminescence quantum yield (in CO) of the same compound?
**A.** 0.84

**Q.** What about the photoluminescence quantum yield (in O) of the same compound?
**A.** 0.2

**Q.** For `O=C1[C@@H]2[C@H](C(=O)N1c1cccc3cc4ccccc4cc13)[C@H]1C[C@@H]2c2c1c(-c1ccccc1)c1ccccc1c2-c1ccccc1`, which photoluminescence quantum yield (in ClC(Cl)Cl) is on record?
**A.** 0.28

**Q.** With `Fc1cccc(-[c+]2c3ccccc3oc3ccccc32)c1` as the compound, how does the photoluminescence quantum yield (in CC#N) read?
**A.** 0.18

**Q.** Which photoluminescence quantum yield (in CC#N) does the source give for `CCC1=C(C)C2=Cc3ccccc3B(O)N2C1=O` here?
**A.** 0.42

**Q.** And the photoluminescence quantum yield (in CCCCCC)?
**A.** 0.25

**Q.** What about the photoluminescence quantum yield (in CO) of the same compound?
**A.** 0.12

**Q.** And the photoluminescence quantum yield (in CS(C)=O)?
**A.** 0.19

**Q.** And the photoluminescence quantum yield (in ClC(Cl)Cl)?
**A.** 0.36

**Q.** With `CC[N+]1(CC)CN2C(=N1)C(C(=O)O)=Cc1ccc(C)cc12` as the compound, how does the photoluminescence quantum yield (in O) read?
**A.** 0.617

**Q.** Which results are given for `N#Cc1cc(-c2ccc(N3c4ccccc4Oc4ccccc43)cc2)c(-c2ccc(N3c4ccccc4Oc4ccccc43)cc2)cc1C#N`?
**A.** photoluminescence quantum yield (in Cc1ccccc1): 0.42; photoluminescence quantum yield (in c1cc(-c2cccc(-n3c4ccccc4c4ccccc43)c2)cc(-n2c3ccccc3c3ccccc32)c1): 0.77

**Q.** Which photoluminescence quantum yield (in ClC(Cl)Cl) does the source give for `O=C1[C@@H]2[C@H](C(=O)N1c1ccc3cc4ccccc4cc3c1)[C@@H]1C=C[C@H]2C1` here?
**A.** 0.24

**Q.** For `C(#Cc1ccc2c(c1)c1cc(C#Cc3ccccc3)ccc1n2-c1cc2ccccc2c2ccccc12)c1ccccc1`, which photoluminescence quantum yield (in ClCCl) is on record?
**A.** 0.32

**Q.** For `COCCOCCOCCOCC(COCCOCCOCCOC)Oc1cc(/C=C/c2ccc(C=C3C(=O)c4ccccc4C3=O)cc2)c(OC(COCCOCCOCCOC)COCCOCCOCCOC)cc1/C=C/c1ccc(C=C2C(=O)c3ccccc3C2=O)cc1`, which photoluminescence quantum yield (in ClCCl) is on record?
**A.** 0.23

**Q.** What does the source list for `CN(C)c1ccc(/C=C2\CC/C(=C\c3ccc(N(C)C)cc3)C2=O)cc1`?
**A.** photoluminescence quantum yield (in C1CCOC1): 0.089; photoluminescence quantum yield (in C1COCCO1): 0.08; photoluminescence quantum yield (in CC#N): 0.11; photoluminescence quantum yield (in CC(C)=O): 0.15; photoluminescence quantum yield (in CC(C)O): 0.18; photoluminescence quantum yield (in CCO): 0.11; photoluminescence quantum yield (in CCOC(C)=O): 0.09; photoluminescence quantum yield (in CN(C)C=O): 0.19; photoluminescence quantum yield (in CO): 0.025; photoluminescence quantum yield (in CS(C)=O): 0.2; photoluminescence quantum yield (in Cc1ccccc1): 0.08; photoluminescence quantum yield (in ClC(Cl)(Cl)Cl): 0.043; photoluminescence quantum yield (in ClC(Cl)Cl): 0.13; photoluminescence quantum yield (in ClCCl): 0.16; photoluminescence quantum yield (in S=C=S): 0.1

**Q.** Which photoluminescence quantum yield (in C1CCOC1) does the source give for `CCCCCCCCC1(CCCCCCCC)c2cc(C=O)ccc2-c2ccc(/C=C/c3ccc(N(c4ccccc4)c4ccccc4)cc3)cc21` here?
**A.** 0.94

**Q.** And the photoluminescence quantum yield (in C1COCCO1)?
**A.** 0.67

**Q.** What about the photoluminescence quantum yield (in CC#N) of the same compound?
**A.** 0.24

**Q.** And the photoluminescence quantum yield (in CC(C)=O)?
**A.** 0.33

**Q.** What about the photoluminescence quantum yield (in CCCCCC) of the same compound?
**A.** 0.6

**Q.** What about the photoluminescence quantum yield (in CCOC(C)=O) of the same compound?
**A.** 0.6

**Q.** What about the photoluminescence quantum yield (in CN(C)C=O) of the same compound?
**A.** 0.12

**Q.** What about the photoluminescence quantum yield (in CS(C)=O) of the same compound?
**A.** 0.2

**Q.** What about the photoluminescence quantum yield (in Cc1ccccc1) of the same compound?
**A.** 0.58

**Q.** What about the photoluminescence quantum yield (in ClC(Cl)Cl) of the same compound?
**A.** 0.53

**Q.** And the photoluminescence quantum yield (in ClCCl)?
**A.** 0.7

**Q.** For `COCCC1(CCOC)c2cc(-c3ccc(OC)cc3)ccc2-c2ccc(-c3ccc(OC)cc3)cc21`, which photoluminescence quantum yield (in C1CCCCC1) is on record?
**A.** 0.61
